Test results taken from US8557733B2, “Composition for regenerating and stimulating growth of plants and for adapting plants to different stress factors” (Mitotech S.A., priority 2006, dated 2013).
“Also recorded” adds a separate entry of the source. One block for each molecule: values may come before it.

Legend:
[1] = test system: maize callus cultures; details: added to nutrient medium for callus initiation; cited from earlier work
[2] = test system: sugar cane calli; assay: Shoot formation and plant regeneration from sugar cane calli; type: cell-based
Procedure: (§1) In this work, calli and explants of tobacco, sugar cane, maize, lucerne, potato and tomatoes were used. Calli were incubated at Petri dishes containing agarized Murashige-Skoog medium with […] and 1 mg/L 2,4-dichlorophenoxyacetic acid. The cultivation was carried out at temperature 26° C., illumination intensity of 2 cd and the length of daylight of 16 hours. SkQ1 was added to autoclaved and cooled (up to 45° C.) nutrient medium immediately before callus planting. SkQ1 at concentrations of 0, 1.5, 5, 10, 20, 30 and 50 nM was used. Increase of callus green weight, a fraction of calli with shoots and roots and an average number of organs per a morphogenetic callus were taken into account after one month of cultivation.
At the same time, development of shoots of calli transferred onto regeneration medium from medium without SkQ1 has been at the very initial stage.
To produce normal plants, sugar cane shoots formed by 10 nM SkQ1 were transferred onto rootage agarized medium containing the same optimum SkQ1 concentration (10 nM). After root formation, the plants were transferred into water medium and then displanted into the ground. Estimation of the plant state was performed at every stage.

[3] = test system: tobacco leaf explants; assay: Callus formation (dedifferentiation) and root formation in tobacco leaf explants; type: cell-based; details: 0.6 μM SkQ1
Procedure: Effect of SkQ1 on callus formation (dedifferentiation) in tobacco leaf explants was investigated. Sterile leaf disks of plants Nicotiana tabacum cv Samsun were sliced with approximately 1 cm^2 size. The resulting explants were placed at standard MS medium for callus formation supplemented with phytohormones 0.5 mg/L 6-benzylaminopurine and 1 mg/L naphthylacetic acid. Test Petri plates were also supplemented with 0.6 μM SkQ1. Explants were cultivated in darkness for 5 weeks. During incubation callus was initially formed at wound explant surfaces.

[4] = test system: maize callus; assay: Morphogenetic processes in maize callus; type: cell-based
Procedure: as §1
Dose-dependent effect of SkQ1 on morphogenetic processes in maize callus was shown. […] Variations in green weight resulted mainly from amount of formed roots.

[5] = test system: Lucerne calli; assay: Callus growth and regeneration ability of lucerne calli; type: cell-based
Procedure: as §1
Lucerne calli were cultivated for 1 month in the presence of different SkQ1 concentrations (0-10 nM). Effect of SkQ1 on callus growth (weight change) and regeneration ability (formation of calli with “green areas”) were assessed.

[6] = test system: leaf potato explants; assay: Formation of shoots and roots from leaf potato explants; type: cell-based; details: 10 nM SkQ1, 10 days
Procedure: (§2) Effect of SkQ1 on formation shoots and roots from leaf potato explants and stem tomato explants was investigated. Explants were incubated for 10 days in the presence of 10 nM SkQ1 or with no SkQ1.

[7] = test system: stem tomato explants; assay: Formation of shoots and roots from stem tomato explants; type: cell-based; details: 10 nM SkQ1, 10 days
Procedure: as §2

[8] = test system: rice seeds; assay: Germination of rice seeds under water (anaerobic conditions); type: in vivo
Procedure: Effect of SkQ1 on germination of rice seeds under water (under anaerobic conditions) was studied. SkQ1 was added to water at concentrations of 0, 1, 3, 10, 30 nM.

[9] = test system: sugar cane calli; assay: Survival of sugar cane calli after anaerobic stress; type: cell-based; details: 48 hours anoxic, then aerobic medium with 10 nM SkQ1
Procedure: Effect of SkQ1 on survival of sugar cane calli following anaerobic stress was assessed. For this purpose, sugar cane calli were incubated for 48 hours under anoxic conditions and then were transferred under aerobic conditions at a nutrient medium containing 10 nM SkQ1or no SkQ1 (control).

[10] = test system: isolated embryos; details: micromolar concentration; wheat; cited from earlier work
[11] = test system: maize embryogenic callus; details: cited from earlier work
[12] = test system: wheat tussue culture; details: wheat tissue culture; cited from earlier work
[13] = 1-10 nM SkQ1, one month of cultivation

Molecule: C1=CC2C=CC1C2 [norbornadiene]
frequency of embryogenic callus formation [1]: stimulated embryogenic callus formation

development of shoots on regeneration medium ([2]; 1000 nM SkQ1 in regeneration medium): destruction of shoots | growth oppression ([4]; high SkQ1 concentrations): No reliable growth oppression
Molecule: CC1=C(C)C(=O)C(CCCCCCCCCC[P+](c2ccccc2)(c2ccccc2)c2ccccc2)=CC1=O.[Br-] [SkQ1]
onset of formation of shoots from calli ([2]; 10 nM SkQ1, control calli showed no shoot formation): 19 day of incubation | rooting of shoots and production of plants ([2]; 10 nM SkQ1, rootage medium, then water medium and ground): take roots properly and give normal viable plants | development of formed shoots on agarized regeneration medium ([2]; 10 nM SkQ1 in regeneration medium): continued to develop normally | development of shoots on regeneration medium ([2]; 100 nM SkQ1 in regeneration medium): termination of further development of shoots | shoot formation from undifferentiated tissue of sugar cane ([2]; FIG. 1): stimulates shoot formation | viability of shoots ([2]; formed and further cultivated at 100 nM or 1000 nM SkQ1): nonviable and died | onset of shoot formation from calli ([2]; higher SkQ1 concentrations (above 10 nM)): > 31 days | amount of calli with shoot formation ([2]; higher SkQ1 concentrations, compared with 10 nM): in lesser amount of calli | root formation from callus tissues ([3]; darkness, 5 weeks, controls showed no root formation): secondary differentiation of callus tissues with root formation; also recorded: stimulates root formation | state of differentiated explant tissues on further incubation ([3]; newly formed root tissues did well): necrotized and died | callus accretion (green weight) ([4]; 0-50 nM SkQ1): did not affect essentially callus accretion | amount of rhizogenic calli ([4]; 1-10 nM SkQ1): No reliable increase | average number of roots per callus ([4]; 1-10 nM SkQ1): increased significantly | average number of shoots per callus [4, 13]: increase of an average number of shoots per callus | inoculum fraction that forms shoots [4, 13]: increase of inoculum fraction that forms shoots | morphogenesis ([4]; SkQ1 at 20 nM and higher, shoot formation affected more than rhizogenesis): inhibited morphogenesis | rhizogenesis on repeated callus cultivation ([4]; repeated cultivation, same medium composition): even more pronounced amplification of rhizogenesis | callus growth (weight change) ([5]; 0-10 nM SkQ1, 1 month): does not affect significantly callus growth | stimulation of regeneration (formation of calli with green areas) ([5]; 5 nM SkQ1, 1 month): 2.5-3 fold | stimulation of regeneration ([5]; SkQ1 concentrations higher than 5 nM): positive effect eliminates | formation of shoots and roots [6]: significantly enhances formation of both shoots and roots | formation of shoots and roots [7]: significantly enhances formation of both shoots and roots | germination of rice seeds under water ([8]; 1 nM SkQ1 in water): enhance significantly germination; also recorded: dramatically enhances germination | germination of rice seeds under water ([8]; SkQ1 at concentrations higher than 1 nM (3, 10, 30 nM)): does not reveal such a stimulating effect | capability for morphogenesis after anaerobic stress [9]: retain capability for morphogenesis | survival of calli following anaerobic stress [9]: markedly higher capability for survival; also recorded: enhances resistance

Molecule: CC1=CC(=O)CC(C)(C)[C@@]1(O)/C=C/C(C)=C\C(=O)O [abscisic acid]
embryogenic callus formation [10]: stimulated embryogenic callus formation

Molecule: NC1(C(=O)O)CC1 [1-aminocyclopropane-1-carboxylic acid]
decrease of a number of produced regenerants [1]: 68% | frequency of embryogenic callus formation [1]: significant reduction

Molecule: O=C(O)[C@@H]1CCCN1 [proline]
number of regenerants per explant ([11]; 20 mM proline, 2.8 without): 7.6 | increase of frequency of embryogenic callus formation and plant regeneration ([11]; 400 mg/L proline in medium): 2-3 fold

Molecule: xyloglucan pentasaccharide
enhancement of morphogenesis [12]: 1.5-2 fold

Molecule: O=[N+]([O-])[O-].[Ag+] [silver nitrate]
frequency of embryogenic callus formation [1]: stimulated embryogenic callus formation
